Relative viability data for 1 cell line are collected here from the supplement of paper PMC10307832.

What all share (assay): relative viability (nuclei count vs DMSO), 5 days (fraction); higher = more cells survive
Compound in assay [1]: CC1=C(CC(=O)O)c2cc(F)ccc2/C1=C\c1ccc([S+](C)[O-])cc1 [Sulindac] + C[C@]1(O)C[C@@H](c2nc(-c3ccc4ccc(-c5ccccc5)nc4c3)c3c(N)nccn32)C1 [Linsitinib] (partner 1 µM)
Summed up: (§1)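 Each reported value is a median over duplicate plates. It expresses relative viability: treated-well nuclei count divided by vehicle-well nuclei count. Lung cancer cell lines in 1536-well plates were dosed by pin tool a day after seeding, alone with one drug or with a fixed anchor-drug dose plus five library-drug doses (not always all listed) in √10 steps, and nuclei were counted after 5 days.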

Compound in assay [2]: CN[C@@H]1C[C@H]2O[C@@](C)([C@@H]1OC)n1c3ccccc3c3c4c(c5c6ccccc6n2c5c31)C(=O)NC4 [Staurosporine] + CC(=O)Nc1cccc(-n2c(=O)n(C3CC3)c(=O)c3c(Nc4ccc(I)cc4F)n(C)c(=O)c(C)c32)c1 [Trametinib] (partner 0.02 µM)
Summed up: as §1

Compound in assay [3]: O=c1[nH]cc(F)c(=O)[nH]1 [5-Fluorouracil] + CC1(C)CCC(c2ccc(Cl)cc2)=C(CN2CCN(c3ccc(C(=O)NS(=O)(=O)c4ccc(N[C@H](CCN5CCOCC5)CSc5ccccc5)c(S(=O)(=O)C(F)(F)F)c4)cc3)CC2)C1 [Navitoclax] (partner 0.5 µM)
Summed up: as §1

Compound in assay [4]: O=c1[nH]cc(F)c(=O)[nH]1 [5-Fluorouracil] + O=C(CCCCCCC(=O)Nc1ccccc1)NO [Vorinostat] (partner 1 µM)
Summed up:
as §1

Regarding UMC-11, the relative viability in assay [1] (first compound 0.08 µM) was found to be 1.27; in assay [1] (first compound 0.253 µM) it was 1.02; in assay [1] (first compound 0.8 µM), 0.815; in assay [1] (first compound 2.53 µM) it was 1.06; in assay [1] (first compound 8 µM), 1.07; in assay [2] (first compound 0.005 µM), 0.444. Further, the relative viability in assay [2] (first compound 0.01581 µM) was determined as 0.0989; in assay [2] (first compound 0.05 µM), 0.212; in assay [2] (first compound 0.1581 µM), 0.121; in assay [2] (first compound 0.5 µM), 0.0798; in assay [3] (first compound 0.02 µM), 0.386; in assay [3] (first compound 0.2 µM) it was 0.322. In addition, the relative viability in assay [3] (first compound 0.6325 µM) came to 0.286; in assay [3] (first compound 2 µM), 0.241; in assay [4] (first compound 0.02 µM), 0.374; in assay [4] (first compound 0.2 µM), 0.325; in assay [4] (first compound 0.6325 µM), 0.244.
